What follows are molecules tested against Human DGAT2 (hDGAT2) (Homo sapiens (Human), UniProt Q96PD7) (assay: In vitro DGAT2 assay, IC50 determination with hDGAT2 membrane fraction). Settings: geometric mean; background for complete inhibition of DGAT2 obtained with 50 μM (1R,2R)-2-({3′-Fluoro-4′-[(6-fluoro-1,3-benzothiazol-2-yl)amino]-1,1′-biphenyl-4-yl}carbonyl)cyclopentanecarboxylic acid; read-out: DGAT2 IC50.
Assay type: biochemical
How it was run: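 CHAPS-solubilized membrane fraction of FLAG-tagged hDGAT2 from baculovirus-infected SF9 cells (0.01 mg/mL) in 100 mM Hepes-NaOH pH 7.4, 20 mM MgCl2, 200 nM methyl arachidonyl fluorophosphonate; compounds pre-incubated 20 min with 0.04% BSA. Reaction 40 min at room temperature, stopped with H3PO4. [^14C]tridecanoylglycerol in organic phase counted; 11-point geometric mean IC50.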

Human DGAT2 (hDGAT2), sequence (Q96PD7 whole entry): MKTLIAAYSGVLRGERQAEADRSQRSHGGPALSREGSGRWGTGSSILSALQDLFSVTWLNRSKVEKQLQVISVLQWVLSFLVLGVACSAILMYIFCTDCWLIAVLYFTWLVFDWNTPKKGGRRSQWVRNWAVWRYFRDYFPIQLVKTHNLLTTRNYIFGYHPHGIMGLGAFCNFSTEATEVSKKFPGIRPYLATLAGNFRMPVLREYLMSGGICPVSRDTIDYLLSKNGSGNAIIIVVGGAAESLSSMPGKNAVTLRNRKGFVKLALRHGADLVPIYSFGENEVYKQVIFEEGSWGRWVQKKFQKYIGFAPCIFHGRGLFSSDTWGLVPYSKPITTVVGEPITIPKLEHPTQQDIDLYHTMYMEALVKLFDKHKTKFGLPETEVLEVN

Row | SMILES | IC50 [µM]
1 | COc1cccc(C2(c3nc4ccc(N5CCC[C@@H](C(=O)N6CCCC6)C5)nc4[nH]3)CC2)c1 [Example 102, (R)-(1-(2-(1-(3-Methoxyphenyl)cyclopropyl)-3H-imidazo[4,5-b]pyridin-5-yl)piperidin-3-yl)(pyrrolidin-1-yl)methanone] | 0.0996
2 | Cc1ccc(C2(c3nc4ccc(N5CCC[C@@H](C(=O)N6CCCC6)C5)nc4[nH]3)CC2)cc1 [Example 103, (R)-Pyrrolidin-1-yl(1-(2-(1-(p-tolyl)cyclopropyl)-3H-imidazo[4,5-b]pyridin-5-yl)piperidin-3-yl)methanone] | 0.0737
3 | Cn1nccc1C1(c2nc3ccc(N4CCC[C@@H](C(=O)N5CCCC5)C4)nc3[nH]2)CC1 [Example 104, (R)-(1-(2-(1-(1-Methyl-1H-pyrazol-5-yl)cyclopropyl)-3H-imidazo[4,5-b]pyridin-5-yl)piperidin-3-yl)(pyrrolidin-1-yl)methanone] | 0.19
4 | O=C([C@@H]1CCCN(c2ccc3nc(-c4cncc(C5CC5)n4)[nH]c3n2)C1)N1CCOCC1 [Example 107, (R)-(1-(2-(6-Cyclopropylpyrazin-2-yl)-3H-imidazo[4,5-b]pyridin-5-yl)piperidin-3-yl)(morpholino)methanone] | 0.153
5 | O=C([C@@H]1CCCN(c2ccc3nc(-c4cccc(C5(O)COC5)n4)[nH]c3n2)C1)N1CCCC1 [Example 111, (R)-(1-(2-(6-(3-Hydroxyoxetan-3-yl)pyridin-2-yl)-3H-imidazo[4,5-b]pyridin-5-yl)piperidin-3-yl)(pyrrolidin-1-yl)methanone] | 0.697
6 | O=C([C@@H]1CCCN(c2ccc3nc(-c4cccc(C(F)(F)F)n4)[nH]c3n2)C1)N1CCCC1 [Example 112, (R)-Pyrrolidin-1-yl(1-(2-(6-(trifluoromethyl)pyridin-2-yl)-3H-imidazo[4,5-b]pyridin-5-yl)piperidin-3-yl)methanone] | 0.00923
7 | NS(=O)(=O)c1cccc(-c2nc3ccc(N4CCC[C@@H](C(=O)N5CCCC5)C4)nc3[nH]2)c1 [Example 114, (R)-3-(5-(3-(Pyrrolidine-1-carbonyl)piperidin-1-yl)-3H-imidazo[4,5-b]pyridin-2-yl)benzenesulfonamide] | 0.0903
8 | O=C([C@@H]1CCCN(c2ccc3nc(-c4coc(C5CC5)n4)[nH]c3n2)C1)N1CCCC1 [Example 118, (R)-(1-(2-(2-Cyclopropyloxazol-4-yl)-3H-imidazo[4,5-b]pyridin-5-yl)piperidin-3-yl)(pyrrolidin-1-yl)methanone] | 0.301
9 | CN(C)c1cccc(-c2nc3ccc(N4CCC[C@@H](C(=O)N5CCCC5)C4)nc3[nH]2)n1 [Example 119, (R)-(1-(2-(6-(Dimethylamino)pyridin-2-yl)-3H-imidazo[4,5-b]pyridin-5-yl)piperidin-3-yl)(pyrrolidin-1-yl)methanone] | 0.0222
10 | O=C([C@@H]1CCCN(c2ccc3nc(-c4cccc(C(F)F)n4)[nH]c3n2)C1)N1CCCC1 [Example 122, (R)-(1-(2-(6-(Difluoromethyl)pyridin-2-yl)-3H-imidazo[4,5-b]pyridin-5-yl)piperidin-3-yl)(pyrrolidin-1-yl)methanone] | 0.0109
11 | COC(=O)c1cccc(-c2nc3ccc(N4CCC[C@@H](C(=O)N5CCCC5)C4)nc3[nH]2)n1 [Example 123, (R)-Methyl 6-(5-(3-(pyrrolidine-1-carbonyl)piperidin-1-yl)-1H-imidazo[4,5-b]pyridin-2-yl)picolinate] | 0.276
12 | COC(=O)c1cccc(-c2nc3ccc(N4CCC[C@@H](C(=O)N5CCCC5)C4)nc3[nH]2)c1 [Example 125, (R)-Methyl 3-(5-(3-(pyrrolidine-1-carbonyl)piperidin-1-yl)-3H-imidazo[4,5-b]pyridin-2-yl)benzoate] | 0.054
13 | COc1cc(C(=O)O)cc(-c2nc3ccc(N4CCC[C@@H](C(=O)N5CCCC5)C4)nc3[nH]2)n1 [Example 126, (R)-2-Methoxy-6-(5-(3-(pyrrolidine-1-carbonyl)piperidin-1-yl)-3H-imidazo[4,5-b]pyridin-2-yl)isonicotinic acid] | 3.47
14 | CCN(CC)C(=O)c1nc2ccc(N3CCC[C@@H](C(=O)N4CCCC4)C3)nc2[nH]1 [Example 129, (R)—N,N-Diethyl-5-(3-(pyrrolidine-1-carbonyl)piperidin-1-yl)-3H-imidazo[4,5-b]pyridine-2-carboxamide] | 4.54
15 | O=C(Nc1ccccn1)c1nc2ccc(N3CCC[C@@H](C(=O)N4CCCC4)C3)nc2[nH]1 [Example 130, (R)—N-(Pyridin-2-yl)-5-(3-(pyrrolidine-1-carbonyl)piperidin-1-yl)-3H-imidazo[4,5-b]pyridine-2-carboxamide] | 1.9
16 | O=C([C@@H]1CCCN(c2ccc3nc(-c4ccnc(C5CC5)n4)[nH]c3n2)C1)N1CC[C@H](O)C1 [Example 132, ((R)-1-(2-(2-Cyclopropylpyrimidin-4-yl)-3H-imidazo[4,5-b]pyridin-5-yl)piperidin-3-yl)((S)-3-hydroxypyrrolidin-1-yl)methanone] | 0.695
17 | c1cc(-c2nc3ccc(N4CCC[C@@H](c5ncc6n5CCC6)C4)nc3[nH]2)nc(C2CC2)n1 [Example 134, (R)-2-(2-Cyclopropylpyrimidin-4-yl)-5-(3-(6,7-dihydro-5H-pyrrolo[1,2-c]imidazol-3-yl)piperidin-1-yl)-3H-imidazo[4,5-b]pyridine] | 0.21

Further molecules by falling IC50, results first:

Row | IC50 [µM] | SMILES
18 | 0.252 | c1cc(-c2nc3ccc(N4CCCC(c5ncc6n5CCC6)C4)nc3[nH]2)nc(C2CC2)n1 (stereo not shown) [Example 133, 2-(2-Cyclopropylpyrimidin-4-yl)-5-(3-(6,7-dihydro-5H-pyrrolo[1,2-c]imidazol-3-yl)piperidin-1-yl)-3H-imidazo[4,5-b]pyridine]
19 | 0.235 | CS(=O)(=O)c1cccc(-c2nc3ccc(N4CCC[C@@H](C(=O)N5CCCC5)C4)nc3[nH]2)c1 [Example 127, (R)-(1-(2-(3-(Methylsulfonyl)phenyl)-3H-imidazo[4,5-b]pyridin-5-yl)piperidin-3-yl)(pyrrolidin-1-yl)methanone]
20 | 0.137 | O=C([C@@H]1CCCN(c2ccc3nc(-c4cncc(F)c4)[nH]c3n2)C1)N1CCCC1 [Example 113, (R)-(1-(2-(5-Fluoropyridin-3-yl)-3H-imidazo[4,5-b]pyridin-5-yl)piperidin-3-yl)(pyrrolidin-1-yl)methanone]
21 | 0.0679 | CC(C)(O)c1cccc(-c2nc3ccc(N4CCC[C@@H](C(=O)N5CCCC5)C4)nc3[nH]2)n1 [Example 115, (R)-(1-(2-(6-(2-Hydroxypropan-2-yl)pyridin-2-yl)-3H-imidazo[4,5-b]pyridin-5-yl)piperidin-3-yl)(pyrrolidin-1-yl)methanone]
22 | 0.0662 | O=C([C@@H]1CCCN(c2ccc3nc(-c4ccccc4)[nH]c3n2)C1)N1CCCC1 [Example 116, (R)-(1-(2-Phenyl-3H-imidazo[4,5-b]pyridin-5-yl)piperidin-3-yl)(pyrrolidin-1-yl)methanone]
23 | 0.0605 | O=C([C@@H]1CCCN(c2ccc3nc(-c4cncc(C5CC5)n4)[nH]c3n2)C1)N1CCCC1 [Example 101, (R)-(1-(2-(6-Cyclopropylpyrazin-2-yl)-3H-imidazo[4,5-b]pyridin-5-yl)piperidin-3-yl)(pyrrolidin-1-yl)methanone]
24 | 0.0415 | COC(=O)Cc1cccc(-c2nc3ccc(N4CCC[C@@H](C(=O)N5CCCC5)C4)nc3[nH]2)c1 [Example 110, (R)-Methyl 2-(3-(5-(3-(pyrrolidine-1-carbonyl)piperidin-1-yl)-3H-imidazo[4,5-b]pyridin-2-yl)phenyl)acetate]
25 | 0.0344 | O=C([C@@H]1CCCN(c2ccc3nc(-c4ccnc(C5CC5)n4)[nH]c3n2)C1)N1CCC(F)(F)C1 [Example 131, (R)-(1-(2-(2-Cyclopropylpyrimidin-4-yl)-3H-imidazo[4,5-b]pyridin-5-yl)piperidin-3-yl)(3,3-difluoropyrrolidin-1-yl)methanone]
26 | 0.0289 | CCOC(=O)c1cc(CC)nc(-c2nc3ccc(N4CCC[C@@H](C(=O)N5CCCC5)C4)nc3[nH]2)c1 [Example 105, (R)-Ethyl 2-ethyl-6-(5-(3-(pyrrolidine-1-carbonyl)piperidin-1-yl)-3H-imidazo[4,5-b]pyridin-2-yl)isonicotinate]
27 | 0.0215 | O=C([C@@H]1CCCN(c2ccc3nc(-c4cccc(N5CCC5)n4)[nH]c3n2)C1)N1CCCC1 [Example 120, (R)-(1-(2-(6-(Azetidin-1-yl)pyridin-2-yl)-3H-imidazo[4,5-b]pyridin-5-yl)piperidin-3-yl)(pyrrolidin-1-yl)methanone]
28 | 0.0143 | O=C([C@@H]1CCCN(c2ccc3nc(-c4cccc(OC(F)F)n4)[nH]c3n2)C1)N1CCCC1 [Example 121, (R)-(1-(2-(6-(Difluoromethoxy)pyridin-2-yl)-3H-imidazo[4,5-b]pyridin-5-yl)piperidin-3-yl)(pyrrolidin-1-yl)methanone]
29 | 0.00716 | CCOC(=O)CCc1cccc(-c2nc3ccc(N4CCC[C@@H](C(=O)N5CCCC5)C4)nc3[nH]2)c1 [Example 128, (R)-Ethyl 3-(3-(5-(3-(pyrrolidine-1-carbonyl)piperidin-1-yl)-3H-imidazo[4,5-b]pyridin-2-yl)phenyl)propanoate]
30 | 0.00568 | O=C([C@@H]1CCCN(c2ccc3nc(C4(c5ccc(C(F)(F)F)cc5)CC4)[nH]c3n2)C1)N1CCCC1 [Example 106, (R)-Pyrrolidin-1-yl(1-(2-(1-(4-(trifluoromethyl)phenyl)cyclopropyl)-3H-imidazo[4,5-b]pyridin-5-yl)piperidin-3-yl)methanone]
31 | 0.00527 | CCOC(=O)C1(c2cccc(-c3nc4ccc(N5CCC[C@@H](C(=O)N6CCCC6)C5)nc4[nH]3)c2)CC1 [Example 124, (R)-Ethyl 1-(3-(5-(3-(pyrrolidine-1-carbonyl)piperidin-1-yl)-3H-imidazo[4,5-b]pyridin-2-yl)phenyl)cyclopropanecarboxylate]
